Patent publication US20240009166A1, “USE OF ZANAMIVIR IN PREPARATION OF DRUG FOR TREATING OR PREVENTING PREECLAMPSIA” (Shenzhen Evergreen Therapeutics Co., Ltd., priority 2020, published 2024)
Entries after “also recorded” stand apart in the source; their conditions may differ.

Key:
Assay type in all cases: in vivo, CD-1 mice
[1] = tested on: L-NAME-induced pre-eclampsia animal model; test: Blood pressure on day 12 of gestation in L-NAME-induced pre-eclampsia model; conditions: days 1-18 of pregnancy, vs pregnancy model group
Experimental: (§1) Pregnant CD-1 mice (age 8-10 weeks) were randomly divided into control and pre-eclampsia model groups. On days 7-16 of the gestational cycle, the model group mice were induced with preeclampsia by subcutaneous injection of 50 mg/kg of N-nitro-L-arginine methyl ester (L-NAME) daily. For the control group, an equal volume of the solvent was injected subcutaneously. [table] In animal models of L-NAME-induced pre-eclampsia, symptoms of hypertension appear two days after the first administration of L-NAME and persist until at least five days after the first administration of L-NAME, according to the literature. The appearance of proteinuric symptoms was relatively late. Therefore, in this experiment, we focused on monitoring the blood pressure of […] on day 12 of gestation (i.e., five days after the first administration of L-NAME), as well as collecting 24-hour urine on day 17-18 of gestation and measuring the level of total protein. Also, we recorded the number of pups produced by each group of pregnant rats.

[2] = tested on: L-NAME-induced pre-eclampsia animal model; test: 24-hour urinary total protein on days 17-18 of gestation in L-NAME-induced pre-eclampsia model; conditions: for L-NAME-induced 24-hour urinary protein elevation: vs pregnancy model group
Experimental: as §1

[3] = tested on: L-NAME-induced pre-eclampsia animal model; test: Number of pups (litter size) in L-NAME-induced pre-eclampsia model
Experimental: as §1

[4] = 90 mg/kg tail vein injection daily
[5] = 120 mg/kg tail vein injection daily

## CC(=O)N[C@H]1[C@H]([C@H](O)[C@H](O)CO)OC(C(=O)O)=C[C@@H]1N=C(N)N [zanamivir, 5-acetamido-4-[(aminoiminomethyl)-amino]-2,6-hydro-3,4,5-trideoxy-D-propanetriolyl-D-galactos-2-enolonic acid]
[1]; [4]
  blood pressure: did not significantly change
[1]; [5]
  L-NAME-induced increase in diastolic blood pressure: significantly reduced
  L-NAME-induced increase in mean arterial pressure: significantly reduced
  L-NAME-induced increase in systolic blood pressure: significantly reduced
[2]; [4]
  L-NAME-induced 24-hour urinary protein elevation: significantly reduced
[2]; [5]
  L-NAME-induced 24-hour urinary protein elevation: significantly reduced
[2]; FIG. 4 legend, dose not stated
  L-NAME-induced elevation of 24-hour urinary protein: significantly reduces
[3]; 90 mg/kg tail vein injection daily, vs pregnancy model group
  reduction of litter size caused by L-NAME: significantly improved
[3]; 120 mg/kg tail vein injection daily, vs pregnancy model group
  reduction of litter size caused by L-NAME: significantly improved; also recorded: returning to a level comparable to that of the pregnant control group
[3]; FIG. 5 legend, dose not stated
  reduction of litter size caused by L-NAME: significantly improved
